For 36 compounds, IC50 results are on record in US8822468B2 (Novartis AG, priority 2008, dated 2014).

pIC50: −log10 of the molar value.

The target in this experiment is T1, cMET receptor tyrosine kinase (GST-cMET (969-1390)) (Homo sapiens, UniProt P08581).
T1 construct: made in house
T1 sequence (P08581 969-1390): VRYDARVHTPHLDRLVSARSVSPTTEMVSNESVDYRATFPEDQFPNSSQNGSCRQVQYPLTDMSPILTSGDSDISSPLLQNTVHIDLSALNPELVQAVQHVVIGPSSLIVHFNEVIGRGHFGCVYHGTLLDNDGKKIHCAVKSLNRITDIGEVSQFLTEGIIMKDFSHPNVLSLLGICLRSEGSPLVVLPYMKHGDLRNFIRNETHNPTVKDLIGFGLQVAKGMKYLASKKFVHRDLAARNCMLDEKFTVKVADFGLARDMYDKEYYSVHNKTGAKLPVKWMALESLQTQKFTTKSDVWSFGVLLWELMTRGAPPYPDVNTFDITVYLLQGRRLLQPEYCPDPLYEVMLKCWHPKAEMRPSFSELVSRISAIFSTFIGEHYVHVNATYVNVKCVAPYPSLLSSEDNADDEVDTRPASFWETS
Nature of the experiment: EPK cMET profiling assay (LanthaScreen TR-FRET antibody based kinase phosphorylation assay). The experiment is classed as biochemical. The note with it: purified recombinant GST-cMET (969-1390), 2 μM ATP, 50 nM Fluorescein-PolyEAY, 60 minutes at room temperature; read-out: c-Met IC50. Put shortly:
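GST-cMET cytoplasmic domain (969-1390), 0.3 nM, phosphorylated 50 nM fluorescein-PolyEAY with 2 µM ATP, Mg2+/Mn2+, 0.6% DMSO, 60 min at room temperature. Stopped with EDTA; Tb-PY20 antibody TR-FRET single end-point read. Final compound concentrations 10 to 0.003 µM, 8 points.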
Background: In TR-FRET formats the signal depends on donor and acceptor labels being close together.
The term pIC50 denotes the IC50 on a negative log10 scale, so that one unit is a factor of ten. Regarding `OCCn1cc(-c2ccc3ncc(Cc4ccc5ncccc5c4Cl)n3n2)cn1` [Example 226, 2-{4-[3-(5-Chloro-quinolin-6-ylmethyl)-imidazo[1,2-b]pyridazin-6-yl]-pyrazol-1-yl}-ethanol], the pIC50 was 7.60. Turning to `Clc1c(Cc2cnc3ccc(-c4cnn(C5CCNCC5)c4)nn23)ccc2ncccc12` [Example 227, 5-Chloro-6-[6-(1-piperidin-4-yl-1H-pyrazol-4-yl)-imidazo[1,2-b]pyridazin-3-ylmethyl]-quinoline], the pIC50 is 7.11.

Regarding `CN1CCC(n2cc(-c3ccc4ncc(Cc5ccc6ncccc6c5Cl)n4n3)cn2)CC1` [Example 228, 5-Chloro-6-{6-[1-(1-methyl-piperidin-4-yl)-1H-pyrazol-4-yl]-imidazo[1,2-b]pyridazin-3-ylmethyl}-quinoline], the pIC50 was 7.00. For `CC(=O)N1CCC(n2cc(-c3ccc4ncc(Cc5cc6cccnc6cc5F)n4n3)cn2)CC1` [Example 230, 1-(4-{4-[3-(7-Fluoro-quinolin-6-ylmethyl)-imidazo[1,2-b]pyridazin-6-yl]-pyrazol-1-yl}-piperidin-1-yl)-ethanone], the pIC50 is 7.57.

As for `Fc1cc2ncccc2cc1Cc1cnc2ccc(-c3cnn(CCN4CCCC4)c3)nn12` [Example 231, 7-Fluoro-6-{6-[1-(2-pyrrolidin-1-yl-ethyl)-1H-pyrazol-4-yl]-imidazo[1,2-b]pyridazin-3-ylmethyl}-quinoline], the pIC50 is 7.59. Next, `Fc1cc2ncccc2cc1Cc1cnc2ccc(-c3cnn(CCN4CCOCC4)c3)nn12` [Example 232, 7-Fluoro-6-{6-[1-(2-morpholin-4-yl-ethyl)-1H-pyrazol-4-yl]-imidazo[1,2-b]pyridazin-3-ylmethyl}-quinoline]: 7.18; `COCCOCCn1cc(-c2ccc3ncc(Cc4cc5cccnc5cc4F)n3n2)cn1` [Example 233, 7-Fluoro-6-(6-{1-[2-(2-methoxy-ethoxy)-ethyl]-1H-pyrazol-4-yl}-imidazo[1,2-b]pyridazin-3-ylmethyl)-quinoline]: 6.92; `COCCn1cc(-c2ccc3ncc(Cc4cc5cccnc5cc4F)n3n2)cn1` [Example 234, 7-Fluoro-6-{6-[1-(2-methoxy-ethyl)-1H-pyrazol-4-yl]-imidazo[1,2-b]pyridazin-3-ylmethyl}-quinoline]: 6.96. Next, `c1cnc2ccc(Cc3cnc4ccc(-c5cnn(CCN6CCC6)c5)nn34)cc2c1` [Example 235, 6-{6-[1-(2-Azetidin-1-yl-ethyl)-1H-pyrazol-4-yl]-imidazo[1,2-b]pyridazin-3-ylmethyl}-quinoline]: 6.66; `c1cnc2ccc(Cc3cnc4ccc(-c5cnn(CCN6CCCC6)c5)nn34)cc2c1` [Example 236, 6-{6-[1-(2-Pyrrolidin-1-yl-ethyl)-1H-pyrazol-4-yl]-imidazo[1,2-b]pyridazin-3-ylmethyl}-quinoline]: 6.43. Turning to `CNCCn1cc(-c2ccc3ncc(Cc4ccc5ncccc5c4)n3n2)cn1` [Example 237, Methyl-{2-[4-(3-quinolin-6-ylmethyl-imidazo[1,2-b]pyridazin-6-yl)-pyrazol-1-yl]-ethyl}-amine], the pIC50 is 6.77. Next, `CN1CCC(n2cc(-c3ccc4ncc(Cc5ccc6ncccc6c5)n4n3)cn2)CC1` [Example 238, 6-{6-[1-(1-Methyl-piperidin-4-yl)-1H-pyrazol-4-yl]-imidazo[1,2-b]pyridazin-3-ylmethyl}-quinoline]: 6.64. Next, `C[C@@H](c1ccc2ncccc2c1)c1cnc2ccc(-c3cnn(C4CCN(C)CC4)c3)nn12` [Example 239, 6-((S)-1-{6-[1-(1-Methyl-piperidin-4-yl)-1H-pyrazol-4-yl]-imidazo[1,2-b]pyridazin-3-yl}-ethyl)quinoline]: 7.51; `C[C@@H](c1ccc2ncccc2c1)c1cnc2ccc(-c3cn[nH]c3)nn12` [Example 240, 6-{(S)-1-[6-(1H-Pyrazol-4-yl)-imidazo[1,2-b]pyridazin-3-yl]-ethyl}-quinoline]: 8.08. To `Cn1cc(-c2ccc3ncc(Cc4cc5cccnc5cc4Cl)n3n2)cn1` [Example 241, 7-Chloro-6-[6-(1-methyl-1H-pyrazol-4-yl)-imidazo[1,2-b]pyridazin-3-ylmethyl]-quinoline] belongs 7.43. Take `CCn1cc(-c2ccc3ncc(Cc4cc5cccnc5cc4Cl)n3n2)cn1` [Example 242, 7-Chloro-6-[6-(1-ethyl-1H-pyrazol-4-yl)-imidazo[1,2-b]pyridazin-3-ylmethyl]-quinoline]: the pIC50 is 7.07. Next, `OCCn1cc(-c2ccc3ncc(Cc4cc5cccnc5cc4Cl)n3n2)cn1` [Example 243, 2-{4-[3-(7-Chloro-quinolin-6-ylmethyl)-imidazo[1,2-b]pyridazin-6-yl]-pyrazol-1-yl}-ethanol]: 7.43; `CC(C)(C)OC(=O)N1CCC(n2cc(-c3ccc4ncc(Cc5c(F)cc6ncccc6c5F)n4n3)cn2)CC1` [Example 244, 4-{4-[3-(5,7-Difluoro-quinolin-6-ylmethyl)-imidazo[1,2-b]pyridazin-6-yl]-pyrazol-1-yl}-piperidine-1-carboxylic acid tert-butyl ester]: 7.06; `Fc1cc2ncccc2c(F)c1Cc1cnc2ccc(-c3cnn(C4CCNCC4)c3)nn12` [Example 245, 5,7-Difluoro-6-[6-(1-piperidin-4-yl-1H-pyrazol-4-yl)-imidazo[1,2-b]pyridazin-3-ylmethyl]-quinoline]: 7.36. To `CN1CCC(n2cc(-c3ccc4ncc(Cc5c(F)cc6ncccc6c5F)n4n3)cn2)CC1` [Example 246, 5,7-Difluoro-6-{6-[1-(1-methyl-piperidin-4-yl)-1H-pyrazol-4-yl]-imidazo[1,2-b]pyridazin-3-ylmethyl}-quinoline] belongs more than 8.52. Next, `CCn1cc(-c2ccc3ncc(Cc4cc5cccnc5cc4F)n3n2)cn1` [Example 250, 6-[6-(1-Ethyl-1H-pyrazol-4-yl)-imidazo[1,2-b]pyridazin-3-ylmethyl]-7-fluoro-quinoline]: 7.82. For `Fc1cc2ncccc2cc1Cc1cnc2ccc(-c3cn[nH]c3)nn12` [Example 251, 7-Fluoro-6-[6-(1H-pyrazol-4-yl)-imidazo[1,2-b]pyridazin-3-ylmethyl]-quinoline], the pIC50 was 7.68.

In the case of `OCCn1cc(-c2ccc3ncc(Cc4cc5cccnc5cc4F)n3n2)cn1` [Example 254, 2-{4-[3-(7-Fluoro-quinolin-6-ylmethyl)-imidazo[1,2-b]pyridazin-6-yl]-pyrazol-1-yl}-ethanol], the pIC50 was 7.48. Next, `C[C@@H](c1cc2cccnc2cc1F)c1cnc2ccc(-c3cnn(CCO)c3)nn12` [Example 257]: more than 8.52; `O[C@H]1CCN(c2ccc3ncc(Cc4cc5cccnc5cc4F)n3n2)C1` [Example 261, (S)-1-[3-(7-Fluoro-quinolin-6-ylmethyl)-imidazo[1,2-b]pyridazin-6-yl]-pyrrolidin-3-ol]: 6.92; `O[C@@H]1CCN(c2ccc3ncc(Cc4cc5cccnc5cc4F)n3n2)C1` [Example 262, (R)-1-[3-(7-Fluoro-quinolin-6-ylmethyl)-imidazo[1,2-b]pyridazin-6-yl]-pyrrolidin-3-ol]: 7.38.

`Fc1cc2ncccc2c(F)c1Cc1cnc2ccc(-c3cn[nH]c3)nn12` [Example 263, 5,7-Difluoro-6-[6-(1H-pyrazol-4-yl)-imidazo[1,2-b]pyridazin-3-ylmethyl]-quinoline]: the pIC50 was 8.00. Regarding `C[C@@H](c1ccc2ncccc2c1)c1cnc2ccc(Cl)nn12` [Example 273, 6-[(S)-1-(6-Chloro-imidazo[1,2-b]pyridazin-3-yl)-ethyl]-quinoline], the pIC50 was 7.68. Next, `C[C@@H](c1ccc2c(cnn2CCO)c1)c1cnc2ccc(-c3cnn(C)c3)nn12` [Example 275, 2-(5-{(S)-1-[6-(1-Methyl-1H-pyrazol-4-yl)-imidazo[1,2-b]pyridazin-3-yl]-ethyl}-indazol-1-yl)ethanol]: 6.82; `Cn1cc(-c2ccc3ncc(Cc4ccc5c(cnn5C)c4)n3n2)cn1` [Example 276, 3-(1-Methyl-1H-indazol-5-ylmethyl)-6-(1-methyl-1H-pyrazol-4-yl)-imidazo[1,2-b]pyridazine]: 7.09; `Cn1cc(-c2ccc3ncc(Cc4cc5cnn(C)c5cc4F)n3n2)cn1` [Example 277, 3-(6-Fluoro-1-methyl-1H-indazol-5-ylmethyl)-6-(1-methyl-1H-pyrazol-4-yl)-imidazo[1,2-b]pyridazine]: 7.21. To `Cn1ncc2cc(Cc3cnc4ccc(-c5cnn(CCO)c5)nn34)c(F)cc21` [Example 281, 2-{4-[3-(6-Fluoro-1-methyl-1H-indazol-5-ylmethyl)-imidazo[1,2-b]pyridazin-6-yl]-pyrazol-1-yl}-ethanol] belongs 7.11; to `Cn1ncc2cc(Cc3cnc4ccc(-c5cnn(C6CCNCC6)c5)nn34)c(F)cc21` [Example 282, 3-(6-Fluoro-1-methyl-1H-indazol-5-ylmethyl)-6-(1-piperidin-4-yl-1H-pyrazol-4-yl)-imidazo[1,2-b]pyridazine], 7.06; to `Cn1cc(-c2ccc3ncc(Cc4c(F)cc5c(cnn5C)c4F)n3n2)cn1` [Example 284, 3-(4,6-Difluoro-1-methyl-1H-indazol-5-ylmethyl)-6-(1-methyl-1H-pyrazol-4-yl)-imidazo[1,2-b]pyridazine], 6.82.

Regarding `Cn1ncc2c(F)c(Cc3cnc4ccc(-c5cnn(CCO)c5)nn34)c(F)cc21` [Example 285, 2-{4-[3-(4,6-Difluoro-1-methyl-1H-indazol-5-ylmethyl)-imidazo[1,2-b]pyridazin-6-yl]-pyrazol-1-yl}-ethanol], the pIC50 is 7.96.

`Cn1cc(-c2ccc3ncc(Cc4ccc5nc(F)cn5c4)n3n2)cn1` [Example 288, 3-(2-Fluoro-imidazo[1,2-a]pyridin-6-ylmethyl)-6-(1-methyl-1H-pyrazol-4-yl)-imidazo[1,2-b]pyridazine]: the pIC50 is 6.07.
